Among the data in ChEMBL document CHEMBL1133313, “Syntheses and antifungal activity of pseudomycin side-chain analogues. Part 1” (2000) are MIC values, retold here.

SMILES strings stand for the structures. ≈ marks a conversion by molar mass, not a printed value. Positions of bridges follow the written chain, without caps; N, C: chain ends. Non-standard residues stand in square brackets, D forms with d. Residues, ends and D or L forms follow the SMILES beside them. *: point of attachment. Tetradecanoyl(3R-OH) = CCCCCCCCCCC[C@@H](O)CC(=O)*; Asp(3S-OH) = N[C@H](C(=O)O)[C@H](O)C(=O)O; Thr(4-Cl) = N[C@H](C(=O)O)[C@H](O)CCl; aThr = C[C@H](O)[C@H](N)C(=O)O; dDab = NCC[C@@H](N)C(=O)O; Dab = NCC[C@H](N)C(=O)O; Dhb = C/C=C(\N)C(=O)O

Common to all, as to format: functional
The test system of one test is Aspergillus fumigatus. The test is described as follows: Lowest concentration required to inhibit the growth of Aspergillus fumigatus.
Test [1] has as its system Candida albicans. Kind of test: Lowest concentration required to inhibit 90-100% of the visible growth of Candida albicans when compared to controls.
Test [2] has as its system Candida albicans. The test is described as follows: Lowest concentration required to inhibit 90-100% of the visible growth of Candida albicans when compared to control; Range is 0.312-0.625.

Turning to `C/C=C1\NC(=O)[C@H]([C@H](C)O)NC(=O)[C@@H](CCN)NC(=O)[C@@H](CCCCN)NC(=O)[C@@H](CC(=O)O)NC(=O)[C@@H](CCN)NC(=O)[C@@H](NC(=O)C[C@@H](O)c2cccc(CCCCCCCC)c2)COC(=O)[C@@H]([C@H](O)CCl)NC(=O)[C@H]([C@H](O)C(=O)O)NC1=O`, the MIC in the test with Aspergillus fumigatus and in the test on Candida albicans [1] was above 20 µg/mL in each case.
Consider `C/C=C1\NC(=O)[C@H]([C@H](C)O)NC(=O)[C@@H](CCN)NC(=O)[C@@H](CCCCN)NC(=O)[C@@H](CC(=O)O)NC(=O)[C@@H](CCN)NC(=O)[C@@H](NC(=O)C[C@H](O)c2cccc(CCCCCCCCCCCC)c2)COC(=O)[C@@H]([C@H](O)CCl)NC(=O)[C@H]([C@H](O)C(=O)O)NC1=O`, for which the MIC (as a rule, the smallest concentration in the dilution series that meets the test's criterion for growth inhibition) in the test with Aspergillus fumigatus is 2.5 µg/mL (≈ 1.93 µM); with Candida albicans [1], 1.25 µg/mL (≈ 0.963 µM).
Turning to `C/C=C1\NC(=O)[C@H]([C@H](C)O)NC(=O)[C@@H](CCN)NC(=O)[C@@H](CCCCN)NC(=O)[C@@H](CC(=O)O)NC(=O)[C@@H](CCN)NC(=O)[C@@H](NC(=O)C[C@@H](O)c2cccc(CCCCCCCCCCCC)c2)COC(=O)[C@@H]([C@H](O)CCl)NC(=O)[C@H]([C@H](O)C(=O)O)NC1=O`, the minimum inhibitory concentration (MIC) was above 20 µg/mL against Aspergillus fumigatus and 5 µg/mL (≈ 3.85 µM) with Candida albicans [1].
For `C/C=C1\NC(=O)[C@H]([C@H](C)O)NC(=O)[C@@H](CCN)NC(=O)[C@@H](CCCCN)NC(=O)[C@@H](CC(=O)O)NC(=O)[C@@H](CCN)NC(=O)[C@@H](NC(=O)C[C@@H](O)c2cccc(OCCCCCCCCCCC)c2)COC(=O)[C@@H]([C@H](O)CCl)NC(=O)[C@H]([C@H](O)C(=O)O)NC1=O`, the values for the MIC against Aspergillus fumigatus and in the test with Candida albicans [1] were above 20 µg/mL and 10 µg/mL (≈ 7.69 µM), respectively.
Take `C/C=C1\NC(=O)[C@H]([C@H](C)O)NC(=O)[C@@H](CCN)NC(=O)[C@@H](CCCCN)NC(=O)[C@@H](CC(=O)O)NC(=O)[C@@H](CCN)NC(=O)[C@@H](NC(=O)C[C@@H](O)CCc2cccc(OCCCCC)c2)COC(=O)[C@@H]([C@H](O)CCl)NC(=O)[C@H]([C@H](O)C(=O)O)NC1=O`: the minimum inhibitory concentration (MIC) in the test with Aspergillus fumigatus and against Candida albicans [1] was above 20 µg/mL throughout.
With `C/C=C1\NC(=O)[C@H]([C@H](C)O)NC(=O)[C@@H](CCN)NC(=O)[C@@H](CCCCN)NC(=O)[C@@H](CC(=O)O)NC(=O)[C@@H](CCN)NC(=O)[C@@H](NC(=O)C[C@H](O)CCc2cccc(OCCCCC)c2)COC(=O)[C@@H]([C@H](O)CCl)NC(=O)[C@H]([C@H](O)C(=O)O)NC1=O`, the minimal inhibitory concentration (MIC) in the test with Aspergillus fumigatus and with Candida albicans [1] was above 20 µg/mL in each case.
With `C/C=C1\NC(=O)[C@H]([C@@H](C)O)NC(=O)[C@@H](CCN)NC(=O)[C@@H](CCCCN)NC(=O)[C@@H](CC(=O)O)NC(=O)[C@@H](CCN)NC(=O)[C@@H](NC(=O)C[C@H](O)c2cccc(OCCCCCCCCCCC)c2)COC(=O)[C@@H]([C@H](O)CCl)NC(=O)[C@H]([C@H](O)C(=O)O)NC1=O`, the values for the MIC in the test on Aspergillus fumigatus and against Candida albicans [1] were above 20 µg/mL and 0.625 µg/mL (≈ 0.481 µM), respectively.
With `C/C=C1\NC(=O)[C@H]([C@@H](C)O)NC(=O)[C@@H](CCN)NC(=O)[C@@H](CCCCN)NC(=O)[C@@H](CC(=O)O)NC(=O)[C@@H](CCN)NC(=O)[C@@H](NC(=O)C[C@H](O)c2cccc(CCCCCCCC)c2)COC(=O)[C@@H]([C@H](O)CCl)NC(=O)[C@H]([C@H](O)C(=O)O)NC1=O`, the MIC is above 20 µg/mL with Aspergillus fumigatus and 5 µg/mL (≈ 4.03 µM) with Candida albicans [1].
As for `C/C=C1\NC(=O)[C@H]([C@@H](C)O)NC(=O)[C@@H](CCN)NC(=O)[C@@H](CCCCN)NC(=O)[C@@H](CC(=O)O)NC(=O)[C@@H](CCN)NC(=O)[C@@H](NC(=O)CC(O)Cc2cccc(OCCCCCC)c2)COC(=O)[C@@H]([C@H](O)CCl)NC(=O)[C@H]([C@H](O)C(=O)O)NC1=O` (stereo not given in full), the minimal inhibitory concentration (MIC) in the test on Aspergillus fumigatus and in the test on Candida albicans [1] was above 20 µg/mL each time.
Take `C/C=C1\NC(=O)[C@H]([C@@H](C)O)NC(=O)[C@@H](CCN)NC(=O)[C@@H](CCCCN)NC(=O)[C@@H](CC(=O)O)NC(=O)[C@@H](CCN)NC(=O)[C@@H](NC(=O)CC(O)CCc2cccc(OCCCCCCCCC)c2)COC(=O)[C@@H]([C@H](O)CCl)NC(=O)[C@H]([C@H](O)C(=O)O)NC1=O` (stereo not given in full): the minimal inhibitory concentration (MIC) against Aspergillus fumigatus was above 20 µg/mL; against Candida albicans [1], 20 µg/mL (≈ 15.4 µM).
Taken in the same sequence, the figures for `C/C=C1\NC(=O)[C@H]([C@@H](C)O)NC(=O)[C@@H](CCN)NC(=O)[C@@H](CCCCN)NC(=O)[C@@H](CC(=O)O)NC(=O)[C@@H](CCN)NC(=O)[C@@H](NC(=O)CC(O)CCc2cccc(OCCCCCCC)c2)COC(=O)[C@@H]([C@H](O)CCl)NC(=O)[C@H]([C@H](O)C(=O)O)NC1=O` (stereo not given in full) were above 20 µg/mL and 10 µg/mL (≈ 7.86 µM).
For `C/C=C1\NC(=O)[C@H]([C@@H](C)O)NC(=O)[C@@H](CCN)NC(=O)[C@@H](CCCCN)NC(=O)[C@@H](CC(=O)O)NC(=O)[C@@H](CCN)NC(=O)[C@@H](NC(=O)CC(O)Cc2cccc(OCCCCCCCCCC)c2)COC(=O)[C@@H]([C@H](O)CCl)NC(=O)[C@H]([C@H](O)C(=O)O)NC1=O` (stereo not given in full), the figures for the MIC against Aspergillus fumigatus and in the test with Candida albicans [1] were above 20 µg/mL and 15 µg/mL (≈ 11.5 µM), respectively.
`C/C=C1\NC(=O)[C@H]([C@@H](C)O)NC(=O)[C@@H](CCN)NC(=O)[C@@H](CCCCN)NC(=O)[C@@H](CC(=O)O)NC(=O)[C@@H](CCN)NC(=O)[C@@H](NC(=O)CC(O)Cc2cccc(OCCCCCCCC)c2)COC(=O)[C@@H]([C@H](O)CCl)NC(=O)[C@H]([C@H](O)C(=O)O)NC1=O` (stereo not given in full): the minimum inhibitory concentration (MIC) with Aspergillus fumigatus and against Candida albicans [1] was above 20 µg/mL in each case.
As for `C/C=C1\NC(=O)[C@H]([C@@H](C)O)NC(=O)[C@@H](CCN)NC(=O)[C@@H](CCCCN)NC(=O)[C@@H](CC(=O)O)NC(=O)[C@@H](CCN)NC(=O)[C@@H](NC(=O)CC(O)CCc2cccc(OCCCCC)c2)COC(=O)[C@@H]([C@H](O)CCl)NC(=O)[C@H]([C@H](O)C(=O)O)NC1=O` (stereo not given in full), the minimum inhibitory concentration (MIC) against Aspergillus fumigatus and in the test on Candida albicans [1] was above 20 µg/mL each time.
Regarding `C/C=C1\NC(=O)[C@H]([C@H](C)O)NC(=O)[C@H](CCN)NC(=O)[C@H](CCCCN)NC(=O)[C@H](CC(=O)O)NC(=O)[C@@H](CCN)NC(=O)[C@@H](NC(=O)C[C@H](O)CCCCCCCCCCC)COC(=O)[C@H]([C@H](O)CCl)NC(=O)[C@H]([C@H](O)C(=O)O)NC1=O` ({Tetradecanoyl(3R-OH)}-S[dDab]DK[Dab][aThr][Dhb][Asp(3S-OH)][Thr(4-Cl)]; ester 1-C), the results for the MIC against Candida albicans [2] and against Aspergillus fumigatus were 0.625 µg/mL (≈ 0.517 µM) and above 20 µg/mL, respectively.
